# Source: patent US9980945B2, “Benzoisoxazole-substituted compounds as MGLUR4 allosteric potentiators, compositions, and methods of treating neurological dysfunction” (Vanderbilt University, priority 2015, dated 2018)
# Biological target: mGluR4 (UniProt Q14833)
# Test: mGluR4 potentiation assay (EC50 for potentiation at EC20 agonist; fluorometric plate reader, Ca2+ or thallium dye)
# Assay type: cell-based
# Conditions: potentiation of mGluR4; species of receptor not given
# Procedure: The disclosed compounds and compositions can be evaluated for their ability to act as a potentiator of metabotropic glutamate receptor activity, in particular mGluR4 activity, by any suitable known methodology known in the art. For example, Chinese Hamster Ovary (CHO) cells transacted with human mGluR4 or HEK cells co-transfected with rat mGluR4 and the G-protein regulated Inwardly Rectifying Potassium channel (GIRK) were plated in clear bottom assay plates for assay in a Hamamatsu FDSS Fluorometric Plate Reader. The cells were loaded with either a Ca2+-sensitive fluorescent dye or the thallium responsive dye and the plates were washed and placed into a suitable kinetic plate reader. For human mGluR4 assays, a fluorescence baseline was established for 3-5 seconds, the disclosed compounds were then added to the cells, and the response in cells was measured. Approximately two and a half minutes later, a concentration of mGluR4 orthosteric agonist (e.g. glutamate or L-AP4) eliciting approximately 20% (EC20) of the maximal agonist response was added to the cells, and the response was measured. Two minutes later, a concentration of mGluR4 agonist (e.g. glutamate or L-AP4) eliciting 80% (EC80) of the maximal agonist response was added to the cells, and the response was measured. For rat mGluR4/GIRK experiments, a baseline was established for approximately five seconds, disclosed compounds were added, and either an EC20 or EC80 concentration of agonist was added approximately two and one half minutes later. Potentiation of the agonist response of mGluR4 by the disclosed compounds was observed as an increase in response to the EC20 concentration of agonist in the presence of compound compared to the response to agonist in the absence of compound. Similarly, antagonism of the agonist response of mGluR4 by the disclosed compounds was observed as a decrease in response to the EC80 concentration of agonist in the presence of compound compared to the response to agonist in the absence of compound.
# The above described assay operated in two modes. In the first mode, a range of concentrations of the disclosed compounds are added to cells, followed by a single fixed concentration of agonist. If the compound acts as a potentiator, an EC50 so value for potentiation and a maximum extent of potentiation by the compound at this concentration of agonist is determined by non-linear curve fitting. If the compound acts as a noncompetitive antagonist, an IC50 value is determined by non-linear curve fitting. In the second mode, several fixed concentrations of the disclosed compounds are added to various wells on a plate, followed by a range in concentrations of agonist for each concentration of disclosed compound. The EC50 values for the agonist at each concentration of compound are determined by non-linear curve fitting. A decrease in the EC50 value of the agonist with increasing concentrations of the sample compound (a leftward shift of the agonist concentration-response curve) is an indication of the degree of mGluR4 potentiation at a given concentration of the sample compound. A decrease in the maximal response of the agonist with increasing concentrations of the sample compounds, with or without a rightward shift in agonist potency, is an indication of the degree of noncompetitive antagonism at mGluR4. The second mode also indicates whether the sample compounds also affect the maximum response to mGluR4 to agonists.
row,SMILES,EC50
1,"Cc1noc2cc(Nc3n[nH]c4cccnc34)ccc12 [Example 1, 3-methyl-N-(1H-pyrazolo[4,3-b]pyridin-3-yl)benzo[d]isoxazol-6-amine]",1.86 µM
2,"c1cnc2[nH]nc(Nc3ccc4c(C5CCCC5)noc4c3)c2c1 [Example 5, 3-cyclopentyl-N-(1H-pyrazolo[3,4-b]pyridin-3-yl)benzo[d]isoxazol-6-amine]",2.4 µM
3,"ClC1(c2noc3cc(Nc4n[nH]c5cccnc45)ccc23)CCC1 [Example 6, 3-(1-chlorocyclobutyl)-N-(1H-pyrazolo[4,3-b]pyridin-3-yl)benzo[d]isoxazol-6-amine]",> 10 µM
4,"CC(C)Cc1noc2cc(Nc3n[nH]c4ncccc34)ccc12 [Example 9, 3-isobutyl-N-(1H-pyrazolo[3,4-b]pyridin-3-yl)benzo[d]isoxazol-6-amine]",4.8 µM
5,"CC(C)Cc1noc2cc(Nc3n[nH]c4ccccc34)ccc12 [Example 10, N-(1H-indazol-3-yl)-3-isobutylbenzo[d]isoxazol-6-amine]",> 10 µM
6,"CCc1noc2cc(Nc3n[nH]c4ncccc34)ccc12 [Example 15, 3-ethyl-N-(1H-pyrazolo[3,4-b]pyridin-3-yl)benzo[d]isoxazol-6-amine]",2.1 µM
7,"CC(C)(C)Cc1noc2cc(Nc3n[nH]c4ccccc34)ccc12 [Example 17, N-(1H-indazol-3-yl)-3-neopentylbenzo[d]isoxazol-6-amine]",> 10 µM
8,"CCc1noc2cc(Nc3n[nH]c4ccccc34)ccc12 [Example 18, 3-ethyl-N-(1H-imdazol-3-yl)benzo[d]isoxazol-6-amine]",1.94 µM

# The next molecules have a lower EC50 than those just listed; values first:
row,EC50,SMILES
1,0.523 µM,"c1cnc2c(Nc3ccc4c(C5CCCC5)noc4c3)n[nH]c2c1 [Example 2, 3-cyclopentyl-N-(1H-pyrazolo[4,3-b]pyridin-3-yl)benzo[d]isoxazol-6-amine]"
2,0.897 µM,"c1cnc2c(Nc3ccc4c(C5CCC5)noc4c3)n[nH]c2c1 [Example 3, 3-cyclobutyl-N-(1H-pyrazolo[4,3-b]pyridin-3-yl)benzo[d]isoxazol-6-amine]"
3,0.683 µM,"c1cnc2c(Nc3ccc4c(C5CCC5)noc4c3)n[nH]c2n1 [Example 4, 3-cyclobutyl-N-(1H-pyrazolo[3,4-b]pyrazin-3-yl)benzo[d]isoxazol-6-amine]"
4,0.527 µM,"c1cnc2c(Nc3ccc4c(C5CCCC5)noc4c3)n[nH]c2n1 [Example 7, 3-cydopentyl-N-(1H-pyrazolo[3,4-b]pyrazin-3-yl)benzo[d]isoxazol-6-amine]"
5,0.185 µM,"ClC1(c2noc3cc(Nc4n[nH]c5nccnc45)ccc23)CCC1 [Example 8, 3-(1-chlorocyclobutyl)-N-(1H-pyrazolo[3,4-b]pyrazin-3-yl)benzo[d]isoxazol-6-amine]"
6,0.521 µM,"CC(C)(C)Cc1noc2cc(Nc3n[nH]c4cccnc34)ccc12 [Example 11, 3-neopentyl-N-(1H-pyrazolo[4,3-b]pyridin-3-yl)benzo[d]isoxazol-6-amine]"
7,0.826 µM,"CC(C)Cc1noc2cc(Nc3n[nH]c4cccnc34)ccc12 [Example 12, 3-isobutyl-N-(1H-pyrazolo[4,3-b]pyridin-3-yl)benzo[d]isoxazol-6-amine]"
8,0.849 µM,"CC(C)Cc1noc2cc(Nc3n[nH]c4nccnc34)ccc12 [Example 13, 3-isobutyl-N-(1H-pyrazolo[3,4-b]pyrazin-3-yl)benzo[d]isoxazol-6-amine]"
9,0.617 µM,"CC(C)(C)Cc1noc2cc(Nc3n[nH]c4nccnc34)ccc12 [Example 14, 3-neopentyl-N-(1H-pyrazolo[3,4-b]pyrazin-3-yl)benzo[d]isoxazol-6-amine]"
10,1.3 µM,"CCc1noc2cc(Nc3n[nH]c4cccnc34)ccc12 [Example 16, 3-ethyl-N-(1H-pyrazolo[4,3-b]pyridin-3-yl)benzo[d]isoxazol-6-amine]"
11,1.31 µM,"CCc1noc2cc(Nc3n[nH]c4nccnc34)ccc12 [Example 19, 3-ethyl-N-(1H-pyrazolo[3,4-b]pyrazin-3-yl)benzo[d]isoxazol-6-amine]"
